The subject of assay [1] is human cervical carcinoma Hela cells. Nature of the assay: MTT cell viability assay, Hela. Format: cell-based. The note with it: 48 h, read-out: Cell viability as a percentage of the cells treated with DMSO, Hela. The source says: (§1) The MTT assay is a colorimetric assay for assessing cell metabolic activity. It is widely used in high-throughput screening of antitumor drugs due to its high sensitivity and economical features. In this example, MTT was used to detect the inhibitory effects of compounds on various cancer cell lines. Cancer cells including human colorectal adenocarcinoma HCT15 cells, RA-resistant human colon cancer HCT116 cells, human cervical carcinoma Hela cells, human hepatoma HepG2 cells and human breast cancer MCF7 cells were cultured in DMEM medium containing 10% fetal bovine serum. 20 uM or 40 uM of compounds were administered to treat cells, cell viability is detected by MTT assay and expressed as a percentage of the cells treated with DMSO (Table 4).

For assay [2], the system named is human colorectal adenocarcinoma HCT15 cells. Briefly: MTT cell viability assay, HCT15. Format: cell-based. The note with it: 48 h, read-out: Cell viability as a percentage of the cells treated with DMSO, HCT15; for viability at 20 µM: HCT-15, 20 uM; for viability at 40 µM: HCT-15, 40 uM.
Excerpt: as §1

Assay [3] relates to human breast cancer MCF7 cells. Briefly: MTT cell viability assay, MCF-7. It is filed as cell-based. The note with it: 48 h, read-out: Cell viability as a percentage of the cells treated with DMSO, MCF-7.
Excerpt: as §1

The subject of assay [4] is inflammatory cytokines in tissues of db/db mice. Nature of the assay: Inflammatory cytokine mRNA levels in tissues of high-fat diet fed db/db mice (RT-PCR). It is filed as in vivo, mouse. The note with it: 5 mg/kg. The source says: In this example, we detected the levels of various inflammatory cytokines including iNOS, IFNγ, TGFβ, TNFα, COX2, IL-1β, IL-6, SAA1, MIP-1α and CD36 in liver, kidney, white adipose tissue (WAT) in various mice models, including wild type mice treated with APAP in example 4, high-fat diet fed diabetic and obesity db/db and KK-Ay mice in example 5, high-fat diet fed wild-type mice in Example 5, as well as in primary hepatocytes with LPS induced inflammation, using RT-PCR.

Assay [5] deals with human hepatoma HepG2 cells. Nature of the assay: MTT cell viability assay, HepG2. It is filed as cell-based. The note with it: 48 h, read-out: Cell viability as a percentage of the cells treated with DMSO, HepG2.
Excerpt: as §1

Assay [6] relates to RA-resistant human colon cancer HCT116 cells. Briefly: MTT cell viability assay, HCT116. It is filed as cell-based. The note with it: 48 h, read-out: Cell viability as a percentage of the cells treated with DMSO, HCT116; for viability at 20 µM: HCT-116, 20 uM; for viability at 40 µM: HCT-116, 40 uM.
Excerpt: as §1

Another assay has as its target T1, full-length FXR (Homo sapiens, UniProt Q96RI1).
T1 construct: The cells were co-transfected with plasmids encoding full-length FXR and the cognate luciferase reporter EcRE-Luc; expressed in transfected cells; host or cells: COS-7
T1 sequence (Q96RI1 1-486): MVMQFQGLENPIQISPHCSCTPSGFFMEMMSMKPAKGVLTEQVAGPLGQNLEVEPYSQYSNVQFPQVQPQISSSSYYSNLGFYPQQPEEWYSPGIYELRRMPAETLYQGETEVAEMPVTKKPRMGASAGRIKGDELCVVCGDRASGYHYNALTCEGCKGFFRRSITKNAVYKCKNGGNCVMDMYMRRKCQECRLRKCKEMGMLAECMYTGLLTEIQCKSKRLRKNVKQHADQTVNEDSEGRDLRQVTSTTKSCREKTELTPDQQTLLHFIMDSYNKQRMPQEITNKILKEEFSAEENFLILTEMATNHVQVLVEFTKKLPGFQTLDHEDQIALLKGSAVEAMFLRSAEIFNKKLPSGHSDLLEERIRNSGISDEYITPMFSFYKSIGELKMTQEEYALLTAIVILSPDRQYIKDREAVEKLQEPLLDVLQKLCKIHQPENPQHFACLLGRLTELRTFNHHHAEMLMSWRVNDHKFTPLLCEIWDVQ
Nature of the assay: Cell-based FXR transactivation, EcRE luciferase reporter in COS-7 cells. The note with it: Table 2; for Cell-based FXR transactivation Fold changes by 5 μM compound: positive: induction, minus: repression; for EC50: EcRE luciferase reporter. On the procedure: COS-7 cells were cotransfected with plasmids encoding full length FXR.
For transient transfection assay, COS-7 cells were maintained in DMEM containing 10% fetal bovine serum and were transiently transfected using Lipofectamine 2000 (Invitrogen). Before 24 h of transfection, 24-well plates were plated. The cells were co-transfected with plasmids encoding full-length FXR and the cognate luciferase reporter EcRE-Luc. Ligands were added 5 hours after transfection. Cells were harvested 24 hours later for the luciferase assays according to the manufacturer's instructions (Dual-Luciferase® Reporter Assay System, Promega). Luciferase activities were normalized to renilla activity co-transfected as an internal control.

Assay [7] deals with db/db mice. Briefly: Hepatic triglyceride, liver histology, serum ALT and ALP in high-fat diet fed db/db mice. The note with it: 10 mg/kg for 10 days. Format: in vivo, mouse. On the procedure: Liver tissues fixed in 4% paraformaldehyde in example 5 were performed for H&E staining by standard procedures. Liver tissues fixed in 4% paraformaldehyde were embedded in optimum cutting temperature compound (OCT), and cryosectioned. Frozen liver sections were stained with 0.3% oil red O according to standard procedures.
The triglyceride levels in liver tissues from mice treated with compounds were analyzed using Tissue triglyceride assay kit (Applygen, Beijing, China).
Alkaline Phosphatase (ALP) is a marker of cholestasis. Cholestasis can be suspected when there is an elevation of ALP enzymes. In fact, greater than 90% of patients with bile stasis will have an elevated alkaline phosphatase. […] The aminotransferase is used to evaluate the presence of hepatitis and may be elevated in cholestasis or with common bile duct obstruction. In this example, 8-10 week age db/db mice were fed with high-fat diet and treated with 10 mg/kg of compounds once daily for 10 days as in Example 5. The activities of serum ALP and ALT were analyzed using ALP kit and ALT kit, respectively (Nanjing Jiancheng Engineering Institute, China).

Assay [8] relates to db/db mice. Briefly: Serum/blood metabolic parameters in high-fat diet fed db/db mice. It is filed as in vivo, mouse. The note with it: 10 mg/kg, treat for 10 days, vehicle 527 ± 63. The source says: KK-Ay mice (KK/Upj-Ay/J) are animal models with moderate obese and diabetes with insulin resistance. KK-Ay mice develop hyperglycemia, hyperinsulinemia, glucose intolerance and obesity as well as fat accumulation in liver by eight weeks of age. Pancreatic islets are hypertrophied and the β-cells are degranulated. db/db mice (BKS.Cg-Dockr+/+ Lepr^db/Jnju) are animal models of type II diabetes. They have the phenotype of insulin resistance. These model mice were used to detect the functions of our compounds on metabolic diseases.
8-10 weeks age mice were maintained as example 4, and fed with high-fat diet (Research Diets, D12492). Mice were i.p. injected with compounds once daily for 7, 10, 11 or 14 days as indicated in each table. After the last compounds injection, mice were fasted for 6 hours with free access to water, and then sacrificed. Part of each liver was fixed in 4% paraformaldehyde for H&E staining, and other liver tissues were stored in liquid nitrogen for enzyme activity measurement and gene expression analysis by RT-PCR. The serums were collected to measure metabolic parameters, including serum glucose, insulin, cholesterol, free fatty acid (FFA) and triglyceride levels. Serum glucose was analyzed using glucose oxidase method (Applygen, Beijing, China). The blood glucose in Table 11 was measured with Berenger blood glucose test strips (B/BRAUN, German) from blood by cutting mice tail after the 6th injection and following fast for 16 hours. Serum cholesterol and FFA were analyzed using Cholesterol Assay Kit and FFA Assay Kit (Bioassay Systems, USA; Nanjing Jiancheng Bioengineering Institute, China; FFA ELISA, R&D, USA), respectively. Serum triglyceride was analyzed using Triglyceride Assay Kit (Bioassay Systems, USA; WAKO Chemicals Inc., Japan; Applygen, Beijing, China). Liver triglyceride was analyzed using Tissue triglyceride assay kit (Applygen, Beijing, China). Serum insulin levels were measured by the Ultra Sensitive Mouse Insulin ELISA Kit (Crystal Chem. Inc., USA). RNA was isolated using Tissue RNA kit (Omega Bio-Tek, GA). The first strand cDNA were obtained by TAKARA reverse transcription kit. Real-time quantitative PCR were performed on a CFX96™ Real-Time PCR Detection System (Bio-Rad) using SYBR Premix Ex Taq™ (TAKARA). Relative mRNA expression levels were normalized to actin levels. […]

Assay [9] deals with T2, FXR ligand binding domain (LBD) (Homo sapiens, UniProt Q96RI1).
T2 construct: made in house
T2 sequence (Q96RI1 262-486 limits assumed): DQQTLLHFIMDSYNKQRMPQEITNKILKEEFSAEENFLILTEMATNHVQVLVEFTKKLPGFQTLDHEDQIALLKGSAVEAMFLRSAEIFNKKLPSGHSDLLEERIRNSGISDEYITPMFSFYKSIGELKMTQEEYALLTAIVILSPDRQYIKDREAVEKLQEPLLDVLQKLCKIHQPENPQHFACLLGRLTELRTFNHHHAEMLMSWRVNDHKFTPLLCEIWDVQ
Briefly: AlphaScreen assay: FXR LBD recruitment of coregulator peptide motifs (SRC2-3, SRC1-2). Format: biochemical. The note with it: Table 2. On the procedure:
In search of novel ligands for FXR, we used FXR ligand binding domain (LBD) as a bait to screen chemical libraries based on AlphaScreen biochemical assay, which determines the efficacy of small molecules in influencing binding affinity of FXR with coregulator peptides (see e.g., Jin et al., (2013) Nature communications 4, 1937).
The binding of the cofactor peptide motifs to FXR ligand binding domain (LBD) in response to ligands was determined by AlphaScreen assays using a hexahistidine detection kit from Perkins-Elmer. The FXR LBD protein was purified as described previously (see e.g., Jin et al., (2013) Nature communications 4, 1937). The experiments were conducted with approximately 20-40 nM receptor LBD and 20 nM biotinylated cofactor peptides in the presence of 5 μg/ml donor and acceptor beads in a buffer containing 50 mM MOPS, 50 mM NaF, 0.05 mM CHAPS, and 0.1 mg/ml bovine serum albumin, all adjusted to a pH of 7.4.

Where two headings read alike, the source gives them in different places. Marks after values point to notes of the source that are not given here.

These results are taken from patent publication US20180116993A1, “MODULATORS OF FARNESOID X RECEPTOR AND METHODS FOR THE USE THEREOF” (XIAMEN UNIVERSITY, priority 2015, published 2018).

Regarding `Cc1cc(C(=O)OC2CC3CCC2(C)C3(C)C)ccc1[N+](=O)[O-]` (centres unmarked) [XD-15, 1,7,7-trimethyl-bicyclo[2.2.1]-heptan-2-yl 3-methyl-4-nitro-benzoate], the viability at 20 µM in [1] came out at 89 ± 6%; in assay [2], 100 ± 2%; in assay [3] it was 81 ± 4%; in assay [5] it was 79%; in [6], 59 ± 3%. Besides, the viability at 40 µM in assay [1] is 70 ± 3%; in assay [2], 62 ± 3%; in assay [3] it was 70%; in assay [5], 72 ± 3%; in assay [6] it was 40 ± 3%. Moreover, the “mRNA level of iNOS (fold), Liver tissue” value in [4] (vehicle 1.06 ± 0.14) is 0.47 ± 0.21^a fold. Moreover, in [4] (vehicle 1.12 ± 0.23), the “mRNA level of iNOS (fold), Colon tissue” value is on record as 0.41 ± 0.16^a fold. For the same compound, on full-length FXR, the “Cell-based FXR transactivation Fold changes by 5 μM compound” value is listed as 3. In addition, the EC50 at full-length FXR fell in the range of 1 to 10 µM.

As for `O=C(OC1CC2CCC1C2)c1ccc([N+](=O)[O-])cc1` (centres unmarked) [XD-25, bicyclo[2.2.1]-heptan-2-yl 4-nitrobenzoate], the viability at 20 µM in assay [1] is 100 ± 2%; in assay [2] it was 100 ± 4%; in [3] it was 100 ± 2%; in assay [5] it was 100 ± 5%; in [6], 79 ± 2%. For the same compound, the viability at 40 µM in assay [1] came to 100 ± 2%; in assay [2], 89 ± 4%; in assay [3], 97 ± 2%; in [5], 90 ± 4%; in assay [6], 66 ± 5%. Also, the “Hepatic triglyceride (mM/g)” value in the assay with db/db mice [7] (vehicle 148 ± 14) is given as 116 ± 5 ^c mM/g. Further, the “Serum ALT (U/L)” value in the assay on db/db mice [7] (vehicle 377 ± 48, Table 15) is on record as 124 ± 21 ^a U/L. Moreover, in the assay with db/db mice [8], the “Serum Glucose (mg/dl)” value is on record as 389 ± 47^a mg/dl. Further, the “Cell-based FXR transactivation Fold changes by 5 μM compound” value on full-length FXR is on record as 1.5. Moreover, at full-length FXR, the EC50 is below 1 µM.

Regarding `Cc1cc(C(=O)OC2CCC3CCCCC3C2)ccc1N` (centres unmarked) [XD-31, decahydro-naphthalen-2-yl 4-amino-3-methylbenzoate], the viability at 20 µM is 74% in assay [1]; 100 ± 1% in assay [2]; 100 ± 1% in [3]; 100 ± 1% in [5]; 63 ± 1% in assay [6]. Moreover, the viability at 40 µM was determined as 42 ± 1% in [1]; 41 ± 1% in assay [2]; 100 ± 1% in assay [3]; 90 ± 1% in assay [5]; 59 ± 1% in [6]. For the same compound, the concentration giving a half-maximal response (EC50) in [9] (SRC1-2 peptide, read-out: EC50 (μM) of FXR binding by AlphaScreen assay recruit SRC1-2) was below 1 µM; in [9] (SRC2-3 peptide, read-out: EC50 (μM) of FXR binding by AlphaScreen assay recruit SRC2-3) it was below 1 µM; at full-length FXR, below 1 µM. The “Serum Glucose (mg/dl)” value with db/db mice [8] is reported as 326 ± 51^a mg/dl. Also, at full-length FXR, the “Cell-based FXR transactivation Fold changes by 5 μM compound” value was −5.
